Literature values in US11013684B2, “Body fluid expanders comprising N-substituted aminosulfonic acid buffers” (AQIX, Ltd., priority 2007, dated 2021).

What was measured:
cultured mammalian cells = conditions: long term studies
[1] = for −ΔpKa/° C.: aqueous solution, 20° C.

SMILES | toxicity to cultured mammalian cells (cultured mammalian cells) | −ΔpKa/° C. [1] | pKa @ 20° C. ([1]; aqueous solution at 20° C.)
O=S(=O)(O)CCN(CCO)CCO [BES, N,N-bis (2-hydroxyethyl)-2-aminoethanesulfonic acid] | non-toxic | 0.016 | 
O=C(O)CN(CCO)CCO [BICINE, N,N-bis (2-hydroxyethyl) glycine] |  | 0.018 | 
O=S(=O)(O)CCN1CCN(CCS(=O)(=O)O)CC1 [PIPES, piperazine-N,N′-bis(2-ethanesulfonic acid)] |  | 0.009 | 6.80
O=C(O)CNC(CO)(CO)CO [TRICINE, N-tris(hydroxymethyl) methylglycine] |  | 0.021 | 
